Reference: PubChem BioAssay AID1963867 (Molecular Pharmacology Branch, DTP, NCI, 2024)

Tested on: KRAS-mutant PDC tumor spheroid with HUVEC/MSC, viability
Assay: Anticancer human tumor 327498-153-R-J2-PDC patient-derived uterine carcinosarcoma cell line growth inhibition [KRAS2]
Settings: for IC50: curve of first compound; for viability, T/C: stronger effect = lower value
Description: Multicellular complex tumor spheroid response to RAS pathway inhibitors in combination with a targeted agents in patient-derived cell lines with oncogenic KRAS variants from multiple cancer types
A high-throughput screen of multi-cell type tumor spheroids was designed to identify active combinations of targeted small molecules and KRAS pathway inhibitors. Complex spheroids include a stromal component modeled by human endothelial cells (HUVEC) and fibroblasts modeled by human mesenchymal stem cells (MSCs). The concentration ranges selected for each drug and investigational agent were based upon clinically achievable concentrations if the clinical Cmax of the agent was known.
Compounds. The drugs and investigational agents: BI-3406 (NSC825286), BAY-293 (NSC824723), batoprotafib (TNO155; NSC825523), sotorasib (AMG 510; NSC818433), MRTX1257 (NSC819558), elimusertib (BAY 1895344; NSC800525), molibresib (GSK525762; NSC774829), temuterkib (LY3214996; NSC803410), venetoclax (NSC766270), alisertib (NSC759677), olaparib (NSC753686), talazoparib (NSC767125), erdafitinib (NSC781556), ipatasertib (NSC767898), cabozantinib (NSC761068), nintedanib (NSC756659), abemaciclib (NSC768073), docetaxel (NSC628503), trametinib (NSC758246), and sapanisertib (NSC764658) were obtained from the National Cancer Institute (NCI) Developmental Therapeutics Program Chemical Repository. The FDA-approved anticancer drug set is available from the Developmental Therapeutics Program. […] The stock solutions were prepared in dimethyl sulfoxide (DMSO, Sigma-Aldrich, St. Louis, MO, cat. D2650) at 800-fold the tested concentration and stored at -70 degrees C prior to their use. All drugs and investigational agents were tested over a range starting from a high concentration at or near the clinical Cmax and decreasing in half-log increments. If the clinical Cmax for an agent had not been determined, the highest concentration tested was 10 microM.
Cell Culture. All cells were maintained in an incubator at 37 degrees C and 5% CO2 with 95% humidity. The PDC lines were cultured according to standard operating procedures established by the NCI PDMR (https://pdmr.cancer.gov/sops/default.htm). Briefly, all PDCs were thawed and cultured in Matrigel-coated flasks prepared with a working solution of 1X Ham's F-12 nutrient mix, without supplementation (Invitrogen, Waltham, MA, cat. 11765054), 100 U/mL penicillin-streptomycin (Invitrogen, cat. 15140122), and 2.5% Matrigel (Corning Inc., Corning, NY, cat. 354248) for the first three passages. All PDCs were cultured in complete DMEM/F-12 media containing advanced DMEM/F-12 (Invitrogen, cat. 12634028), 4.9% defined fetal bovine serum, heat inactivated (HyClone Laboratories Inc., Logan, UT, cat. SH30070.03HI), 389 ng/mL hydrocortisone (Sigma-Aldrich, cat. H4001), 9.7 ng/mL human EGF recombinant protein (Invitrogen, cat. PHG0313), 23.4 microg/mL adenine (Sigma-Aldrich, cat. A2786), 97.3 U/mL penicillin-streptomycin (Invitrogen, cat. 15140122), 1.9 mM L-glutamine (Invitrogen, cat. 25030081), and 9.7 microM Y-27632 dihydrochloride (Tocris Bioscience, Bristol, United Kingdom, cat. 1254). The PDCs were cultured in complete DMEM/F12 media without 9.7 microM Y-27632 dihydrochloride for at least two passages prior to the screen. The established cell line HOP-62 was cultured in RPMI 1640 medium, HEPES (Invitrogen, cat. 22400105) with 10% defined fetal bovine serum (HyClone Laboratories Inc., cat. SH30070.03) and 2 mM L-glutamine (Invitrogen, cat. 25030081). The pooled donor HUVEC were cultured in endothelial cell growth medium 2 (PromoCell, Heidelberg, Germany, cat. C-22011) and the hMSC were cultured in mesenchymal stem cell growth medium 2 (PromoCell, cat. C-28009). For all experiments, HUVEC and hMSC were used at passages </=5, while the malignant cell lines were used at passages </=15. […]

[1] = second compound 0.1 µM, first compound 0.0316 µM
[2] = second compound 0.1 µM, first compound 0.1 µM
[3] = second compound 0.1 µM, first compound 0.316 µM
[4] = second compound 0.1 µM, first compound 1 µM
[5] = second compound 0.1 µM, first compound 3.16 µM
[6] = second compound 0.1 µM, first compound 10 µM
[7] = second compound 0.316 µM, first compound 0.0316 µM
[8] = second compound 0.316 µM, first compound 0.1 µM
[9] = second compound 0.316 µM, first compound 0.316 µM
[10] = second compound 0.316 µM, first compound 1 µM
[11] = second compound 0.316 µM, first compound 3.16 µM
[12] = second compound 0.316 µM, first compound 10 µM
[13] = second compound 1 µM, first compound 0.0316 µM
[14] = second compound 1 µM, first compound 0.1 µM
[15] = second compound 1 µM, first compound 0.316 µM
[16] = second compound 1 µM, first compound 1 µM
[17] = second compound 1 µM, first compound 3.16 µM
[18] = second compound 1 µM, first compound 10 µM
[19] = second compound 3.16 µM, first compound 0.0316 µM
[20] = second compound 3.16 µM, first compound 0.1 µM
[21] = second compound 3.16 µM, first compound 0.316 µM
[22] = second compound 3.16 µM, first compound 1 µM
[23] = second compound 3.16 µM, first compound 3.16 µM
[24] = second compound 3.16 µM, first compound 10 µM
[25] = second compound 10 µM, first compound 0.0316 µM
[26] = second compound 10 µM, first compound 0.1 µM
[27] = second compound 10 µM, first compound 0.316 µM
[28] = second compound 10 µM, first compound 1 µM
[29] = second compound 10 µM, first compound 3.16 µM
[30] = second compound 10 µM, first compound 10 µM
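Also: spheroids exposed to agents for seven days before reading.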
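For viability, T/C in this document: 100% = DMSO vehicle wells so lower means fewer viable cells.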

Row | SMILES | IC50 (second compound 0.1 µM) | IC50 (second compound 0.316 µM) | IC50 (second compound 1 µM) | IC50 (second compound 3.16 µM) | IC50 (second compound 10 µM) | viability, T/C [1] | viability, T/C [2] | viability, T/C [3] | viability, T/C [4] | viability, T/C [5] | viability, T/C [6] | viability, T/C [7] | viability, T/C [13] | viability, T/C [14] | viability, T/C [15] | viability, T/C [16] | viability, T/C [19] | viability, T/C [20] | viability, T/C [21] | viability, T/C [22] | also measured
1 | Cn1nccc1Nc1nccc(-c2cc3c(s2)C(C)(C)N(CCN2CCOCC2)C3=O)n1 + CNCc1ccccc1-c1csc(C(C)Nc2nc(C)nc3cc(OC)c(OC)cc23)c1 | 1640 nM | 1170 nM | 1030 nM | < 31.6 nM | < 31.6 nM | 73.9% | 76.8% | 64% | 55.7% | 43.5% | 35.9% | 77.7% | 62% | 62% | 58.6% | 48.2% | 0.13% | 0.11% | 0.1% | 2.37% | viability, T/C [8]: 62.6%; viability, T/C [9]: 64.6%; viability, T/C [10]: 50.2%; viability, T/C [11]: 42.2%; viability, T/C [12]: 32.5%; viability, T/C [17]: 41.3%; viability, T/C [18]: 34.1%; viability, T/C [23]: 0.1%; viability, T/C [24]: 0.18%; viability, T/C [25]: 0.14%; viability, T/C [26]: 0.68%; viability, T/C [27]: 0.13%; viability, T/C [28]: 0.38%; viability, T/C [29]: 0.22%; viability, T/C [30]: 0.23%
2 | CCNC(=O)CC1N=C(c2ccc(Cl)cc2)c2cc(OC)ccc2-n2c(C)nnc21 (stereo unspecified) + C=CC(=O)N1CCN(c2nc(OCC3CCCN3C)nc3c2CCN(c2cccc4cccc(C)c24)C3)CC1CC#N | 218 nM | – | < 31.6 nM | < 31.6 nM | – | 55.9% | 58.4% | 46.2% | 36.9% | 31.9% | 22.4% | – | 48.8% | 41.7% | 36.4% | 27.9% | 1.66% | 2.31% | 1.02% | 0.22% | IC50 (second compound 0.0316 µM): 657 nM; viability, T/C (second compound 0.0316 µM, first compound 0.0316 µM): 72.8%; viability, T/C (second compound 0.0316 µM, first compound 0.1 µM): 75.9%; viability, T/C (second compound 0.0316 µM, first compound 0.316 µM): 51.8%; viability, T/C (second compound 0.0316 µM, first compound 1 µM): 47.1%; viability, T/C (second compound 0.0316 µM, first compound 3.16 µM): 36.5%; viability, T/C (second compound 0.0316 µM, first compound 10 µM): 27%; viability, T/C [17]: 25.1%; viability, T/C [18]: 18.9%; viability, T/C [23]: 2.19%; viability, T/C [24]: 0.39%
3 | CCN1CCN(Cc2ccc(Nc3ncc(F)c(-c4cc(F)c5nc(C)n(C(C)C)c5c4)n3)nc2)CC1 + C=CC(=O)N1CCN(c2nc(=O)n(-c3c(C)ccnc3C(C)C)c3nc(-c4c(O)cccc4F)c(F)cc23)C(C)C1 | 5.23 nM | < 3.16 nM | < 3.16 nM | < 3.16 nM | < 3.16 nM | 32.7% | 30.6% | 30.7% | 35.1% | – | – | 28.2% | 30.2% | 33.5% | 39% | 38.3% | 33.8% | 32.7% | 40.5% | 36.9% | viability, T/C (second compound 0.1 µM, first compound 0.00316 µM): 56.9%; viability, T/C (second compound 0.1 µM, first compound 0.01 µM): 42.5%; viability, T/C (second compound 0.316 µM, first compound 0.00316 µM): 49.6%; viability, T/C (second compound 0.316 µM, first compound 0.01 µM): 40.5%; viability, T/C [8]: 31.1%; viability, T/C [9]: 34.9%; viability, T/C [10]: 40%; viability, T/C (second compound 1 µM, first compound 0.00316 µM): 48.3%; viability, T/C (second compound 1 µM, first compound 0.01 µM): 42%; viability, T/C (second compound 3.16 µM, first compound 0.00316 µM): 49.2%; viability, T/C (second compound 3.16 µM, first compound 0.01 µM): 39%; viability, T/C (second compound 10 µM, first compound 0.00316 µM): 41.9%; viability, T/C (second compound 10 µM, first compound 0.01 µM): 32.5%; viability, T/C [25]: 35.6%; viability, T/C [26]: 36.2%; viability, T/C [27]: 39.3%; viability, T/C [28]: 2.69%
4 | COC(=O)c1ccc2c(C(=Nc3ccc(N(C)C(=O)CN4CCN(C)CC4)cc3)c3ccccc3)c(O)[nH]c2c1 | – | – | – | – | – | – | – | – | – | – | – | – | – | – | – | – | – | – | – | – | viability, T/C (compound 0.0316 µM): 89.5% [middle of 5 runs]; viability, T/C (compound 0.1 µM): 94.6% [middle of 5 runs]; viability, T/C (compound 0.316 µM): 84.9% [middle of 5 runs]
5 | O=C(c1cc(Cc2n[nH]c(=O)c3ccccc23)ccc1F)N1CCN(C(=O)C2CC2)CC1 + CNCc1ccccc1-c1csc(C(C)Nc2nc(C)nc3cc(OC)c(OC)cc23)c1 | 2060 nM | 1810 nM | 1750 nM | 411 nM | < 31.6 nM | 83.4% | 80.3% | 82.8% | 73.6% | 36.1% | 19.2% | 86.6% | 90.8% | 81.8% | 81.3% | 66.3% | 57.7% | 67.8% | 62% | 0.7% | viability, T/C [8]: 87.4%; viability, T/C [9]: 76.7%; viability, T/C [10]: 69.5%; viability, T/C [11]: 32.4%; viability, T/C [12]: 19.1%; viability, T/C [17]: 33.2%; viability, T/C [18]: 19.1%; viability, T/C [23]: 25.9%; viability, T/C [24]: 0.17%; viability, T/C [25]: 2.32%; viability, T/C [26]: 0.2%; viability, T/C [27]: 1.62%; viability, T/C [28]: 0.19%; viability, T/C [29]: 0.15%; viability, T/C [30]: 1.22%
